From publication PMC6520732, “Exploring the Antiangiogenic Potential of Solomonamide A Bioactive Precursors: In Vitro and In Vivo Evidences of the Inhibitory Activity of Solo F-OH During Angiogenesis” (Marine Drugs, 2019)
In brackets after ≈: the same amount, converted by molar mass. Where two headings read alike, the source gives them in different places.

Assays:
[1] = system: bovine aortic endothelial cells (BAEC); conditions: 72 h of treatment, proliferating conditions; ref [17]; cited from earlier work
Excerpt: Table 1 Summary of the results obtained in the primary in vitro screening assays for the complete series of synthetic solomonamide precursors. BAEC: bovine aortic endothelial cells, MIC: minimum inhibitory concentration. | column: IC50 ^1 (μM) in BAEC [17]

[2] = system: BAEC endothelial tubular-like structures formation; assay type: cell-based, bovine; conditions: 5 h
Procedure: (§1) Cellular suspensions of 5 × 10^4 BAE cells in serum-free DMEM were added to a 96-well plate coated with 50 µL of Matrigel (10.5 mg/mL) in the presence of the indicated treatments for 5 h and photographed with a microscope camera Nikon DS-Ri2 coupled to a Nikon Eclipse Ti microscope (Nikon, Tokyo, Japan). Each concentration was tested in duplicate, and staurosporine 2 µM was used as a routine positive assay control. For the disruption assay, tubular-like structures were formed following the same protocol for the control conditions; then, the indicated concentrations of Solo F–OH were added. After a further incubation time of 90 min, cultures were observed and photographed. Combretastatin-4-phosphate (CA4P) was used as positive control of the disruptor antiangiogenic drug.

CAM of chicken embryos = conditions: 48 h; for Positive/Total: methylcellulose disc
Procedure: Fertilized chick eggs were incubated horizontally at 38 °C in a humidified incubator, windowed by day 3 of incubation, and processed by day 8. […] Then, methylcellulose discs were implanted onto the CAM, and the eggs were sealed with adhesive tape and returned to the incubator for 48 h. Negative controls were always made with DMSO mixed with the methylcellulose, and aeroplysinin-1 (3 nmol/CAM) was used as a routine positive control of antiangiogenic compound [47]. After the incubation, the CAM was examined under a stereomicroscope and photographed with a Nikon DS-Ri2 camera. The results were analyzed by two different observers, and the assay was scored positive when both of them reported a significant reduction of vessels in the treated area.

MMP-2 [3] = experiment: Gelatin zymography of conditioned media and cell extracts of treated BAEC; assay type: cell-based, bovine; conditions: 20 μM, 24 h
Procedure: (§2) Zymographies for matrix metalloproteinases MMP-2 and MMP-9 activities were performed in both conditioned media and cellular extracts of endothelial (BAEC) and tumor (HT1080) cell lines as described in Fajardo et al.. Briefly, cells seeded in six-well plates were incubated in serum-free culture medium with 0.1% BSA containing 200 KIU of aprotinin/mL and the correspondent treatment. After 24 h of incubation, conditioned media were collected, and cell lysates were obtained. Duplicates were used to determine the cell number, and samples were normalized for equal loading. In order to detect the gelatinolytic activity of MMP-9 and MMP-2, samples were loaded in non-reducing SDS/PAGE gels containing gelatin (1 mg/mL). After electrophoresis, gels were incubated overnight at 37 °C in a substrate buffer (50 mM of Tris/HCl, pH 7.4, supplemented with 1% Triton X-100, 5 mM CaCl2, and 0.02% Na3N) and stained with Coomassie blue R-250. The bands of gelatinase activity could be detected as non-stained bands in a dark, stained background. The size and intensity of the bands were quantified using Image J software.

MMP-2 [4] = experiment: Gelatin zymography of conditioned media and cell extracts of treated HT1080; assay type: cell-based, human; conditions: treated HT1080, 24 h
Procedure: as §2

MMP-9 = experiment: as above; assay type: cell-based, human; conditions: treated HT1080, 24 h
Procedure: as §2

Akt = experiment: Western blot of Akt phosphorylation in serum-induced BAEC; assay type: cell-based, bovine; conditions: 20 μM, 1 h treatment of starved BAEC, then 10% FBS for 10 min, two independent experiments
Procedure: (§3) BAE cells were starved in serum-free for 16 h. After one-hour treatment with Solo F-OH at 10 and 20 μM in the same conditions, cells were induced with 10% of FBS for 10 min. Protein lysates were obtained in radioimmunoprecipitation assay buffer (RIPA) (50 mM of Tris, pH 7.4, 150 mM of NaCl, 1% Triton X-100, 0.25% sodium deoxycholate, 1 mM of EDTA) containing phosphatase activity inhibitors (30 mM of sodium fluoride, 1 mM of sodium orthovanadate, 30 mM of β-glycerophosphate) and protease activity inhibitors (Complete mini, Roche, Mannheim, Germany). Protein concentration was determined using the Lowry method. Samples were subjected to SDS-PAGE electrophoresis and transferred to nitrocellulose membranes. […] Following one hour of incubation with horseradish peroxidase-conjugated secondary antibodies (MERK; goat anti-rabbit IgG HRP Linked Whole Antibody #NA934V; goat anti-mouse IgG (whole molecule)–Peroxidase antibody #A4416) at room temperature, immunoreactive bands were detected with SuperSignal West Pico Chemiluminescent Substrate (Pierce, Rockford, USA) and quantified by ImageJ software. The phosphorylated/total protein ratios were expressed as the percentage of the ratio in serum-stimulated samples in the absence of Solo F–OH.

[5] = system: already formed BAEC tubular-like structures; experiment: Vascular disruption assay in vitro (already formed tubular-like structures on Matrigel); assay type: cell-based, bovine; conditions: 90 min; even at a concentration 10-fold higher than the MIC of the tube formation assay
Procedure: as §1

ERK1/2 = experiment: Western blot of ERK1/2 phosphorylation in serum-induced BAEC; assay type: cell-based, bovine; conditions: 20 μM, 1 h treatment of starved BAEC, then 10% FBS for 10 min, two independent experiments
Procedure: as §3

[6] = system: subintestinal vessels (SIVs) of zebrafish embryos; experiment: FGF-2 induced angiogenesis zebrafish yolk membrane (ZFYM) assay; assay type: in vivo, zebrafish (Danio rerio); conditions: FGF-2 2 ng, 24 h
human recombinant VEGFR2 = human recombinant VEGFR2 (Homo sapiens, UniProt P35968); experiment: In vitro measure of VEGFR2 TK activity (luminescent VEGFR2 (KDR) Kinase Assay Kit); conditions: 20 μM, 45 min at 30 °C; mean ± SD of four independent measures
human recombinant VEGFR2, sequence (P35968 20-1356): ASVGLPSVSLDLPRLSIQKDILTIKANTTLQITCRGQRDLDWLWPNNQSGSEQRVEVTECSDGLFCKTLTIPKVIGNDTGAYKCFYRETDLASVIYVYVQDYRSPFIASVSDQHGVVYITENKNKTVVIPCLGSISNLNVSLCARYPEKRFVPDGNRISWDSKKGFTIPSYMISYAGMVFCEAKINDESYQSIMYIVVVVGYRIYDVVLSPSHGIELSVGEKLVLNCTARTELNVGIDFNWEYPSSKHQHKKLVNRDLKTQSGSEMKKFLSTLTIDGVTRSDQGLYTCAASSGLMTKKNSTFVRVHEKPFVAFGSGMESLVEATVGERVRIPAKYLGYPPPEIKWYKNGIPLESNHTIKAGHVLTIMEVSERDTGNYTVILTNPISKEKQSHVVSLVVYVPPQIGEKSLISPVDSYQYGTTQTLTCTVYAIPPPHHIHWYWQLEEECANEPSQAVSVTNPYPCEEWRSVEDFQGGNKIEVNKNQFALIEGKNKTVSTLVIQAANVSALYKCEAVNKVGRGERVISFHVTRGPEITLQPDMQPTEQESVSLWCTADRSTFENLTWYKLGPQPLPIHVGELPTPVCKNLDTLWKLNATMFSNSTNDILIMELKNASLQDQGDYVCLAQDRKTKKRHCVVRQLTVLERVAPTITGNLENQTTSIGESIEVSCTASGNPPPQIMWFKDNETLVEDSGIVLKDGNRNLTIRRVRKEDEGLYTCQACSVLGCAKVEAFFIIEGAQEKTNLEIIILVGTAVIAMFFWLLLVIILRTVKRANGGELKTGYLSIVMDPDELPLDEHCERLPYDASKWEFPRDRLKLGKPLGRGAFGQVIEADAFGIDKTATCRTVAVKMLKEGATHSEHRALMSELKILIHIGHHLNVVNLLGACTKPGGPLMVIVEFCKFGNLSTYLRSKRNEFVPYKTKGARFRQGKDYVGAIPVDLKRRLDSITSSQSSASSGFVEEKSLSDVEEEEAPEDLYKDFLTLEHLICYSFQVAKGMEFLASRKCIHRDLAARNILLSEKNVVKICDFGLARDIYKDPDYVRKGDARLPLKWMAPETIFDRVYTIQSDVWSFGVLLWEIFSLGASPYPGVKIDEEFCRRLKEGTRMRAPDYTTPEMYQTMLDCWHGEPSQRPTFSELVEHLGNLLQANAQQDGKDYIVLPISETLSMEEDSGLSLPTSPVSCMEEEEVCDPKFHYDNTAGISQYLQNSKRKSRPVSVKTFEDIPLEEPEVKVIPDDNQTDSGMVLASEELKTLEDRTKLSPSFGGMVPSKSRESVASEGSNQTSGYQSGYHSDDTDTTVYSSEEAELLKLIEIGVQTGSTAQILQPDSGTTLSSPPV

BAEC invasion = experiment: Cell invasion assay on Matrigel-coated transwells; assay type: cell-based, bovine; conditions: 20% FBS in lower chamber, 16 h, read-out: Concentration reaching 50% of inhibition of BAEC invasion
Procedure: The invasion of endothelial cells was assayed by using 8.0-μm pore size transwell inserts coated with 100 µL of Matrigel 0.12 mg/mL solution. 10^5 BAE cells, in the absence or presence of the indicated concentrations of Solo F–OH, were added to the upper chamber of the transwells in the absence of serum, and the lower chamber was filled with 20% FBS DMEM. After 16 h of incubation, invading cells were fixed in 4% paraformaldehyde and stained with a 1% crystal violet solution in 2% ethanol. Cells were photographed with a microscope camera Nikon DS-Ri2 coupled to a Nikon Eclipse Ti microscope (Nikon, Tokyo, Japan).

MMP-2 [7] = molecular target: T1, MMP-2 (Bos taurus, UniProt Q9GLE5); experiment: In situ inhibition of MMP-2 gelatinase activity (compound in zymography incubation buffer); assay type: biochemical, bovine; conditions: 20 μM in substrate buffer; conditioned media of untreated BAEC
T1 construct: conditioned media and cellular extracts of endothelial (BAEC) and tumor (HT1080) cell lines; endogenous in cells; host or cells: BAEC (bovine aortic endothelial cells)
T1 sequence (Q9GLE5 111-661): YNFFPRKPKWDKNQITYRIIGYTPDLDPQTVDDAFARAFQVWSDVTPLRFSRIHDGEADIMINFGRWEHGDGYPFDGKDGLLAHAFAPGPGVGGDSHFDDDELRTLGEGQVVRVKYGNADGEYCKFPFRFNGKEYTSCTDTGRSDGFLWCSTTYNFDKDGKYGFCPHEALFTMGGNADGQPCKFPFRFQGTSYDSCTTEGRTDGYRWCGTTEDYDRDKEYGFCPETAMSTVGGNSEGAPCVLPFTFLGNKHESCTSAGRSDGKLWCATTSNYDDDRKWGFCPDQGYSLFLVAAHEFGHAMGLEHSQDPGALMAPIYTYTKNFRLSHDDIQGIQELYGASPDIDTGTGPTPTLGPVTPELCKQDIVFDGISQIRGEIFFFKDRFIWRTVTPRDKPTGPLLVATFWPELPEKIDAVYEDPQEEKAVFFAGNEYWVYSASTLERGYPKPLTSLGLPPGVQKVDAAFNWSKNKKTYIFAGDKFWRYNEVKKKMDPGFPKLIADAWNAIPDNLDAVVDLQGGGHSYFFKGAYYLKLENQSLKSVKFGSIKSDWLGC
Procedure: A variant of this method was used to obtain complementary information about the direct inhibition of the tested compound on MMP-2 gelatinase activity: samples of conditioned media of untreated BAEC were subjected to gelatin zymography and, after electrophoresis, 20 μM of Solo F–OH was added to the substrate buffer. Detection of the degrading bands and quantification were performed as described above.

C[C@H]1NC(=O)CNC(=O)CC/C=C/Cc2ccccc2NC1=O [Solo-1]
IC50 [1]: > 100 µM
MIC Tubular Like-Structures Formation [2]: >50 µM

C[C@H]1NC(=O)CNC(=O)CC/C=C/Cc2ccc(OCc3ccccc3)cc2NC1=O [Solo-2]
IC50 [1]: 43.8 ± 1.2 µM
MIC Tubular Like-Structures Formation [2]: >50 µM

C[C@@H]1C(=O)NCC(=O)N[C@H](C)C(=O)Nc2cc(OCc3ccccc3)ccc2/C=C/C[C@@H]1O [Solo F–OH]
Positive/Total (CAM of chicken embryos; 0.1 nmol/CAM): 1/7
Positive/Total (CAM of chicken embryos; 0.5 nmol/CAM): 2/7
Positive/Total (CAM of chicken embryos; 1 nmol/CAM): 6/9
Positive/Total (CAM of chicken embryos; 5 nmol/CAM): 9/12
Positive/Total (CAM of chicken embryos; 10 nmol/CAM): 10/10
Dose reaching 50% of inhibition of CAM neovascularization (CAM of chicken embryos; CAM assay): lower than 1 nmol/CAM
Presence of MMP-2 in cell extracts and conditioned media of BAEC (MMP-2 [3]): reduced
MMP-2 activity in HT1080 cells (MMP-2 [4]): decreased
MMP-9 activity in HT1080 cells (MMP-9): decreased
Phosphorylation of Akt in the presence of serum (Akt): substantially reduced
Disruption of endothelial tubular-like structures already formed on Matrigel [5]: not able to disrupt
IC50 [1]: 18.1 ± 2.2 µM
Phosphorylation of ERK1/2 in the presence of serum (ERK1/2): substantially reduced
Score + / Total (mild response), % ([6]; compound 5 µM): 36.8%
Score + / Total (mild response), embryos ([6]; compound 5 µM): 7/19
Score ++ / Total (strong response), % ([6]; compound 5 µM): 15.8%
Score ++ / Total (strong response), embryos ([6]; compound 5 µM): 3/19
Score – / Total (no response to FGF-2), % ([6]; compound 5 µM): 47.4%
Score – / Total (no response to FGF-2), embryos ([6]; compound 5 µM): 9/19
Score + / Total (mild response), % ([6]; compound 10 µM): 39.1%
Score + / Total (mild response), embryos ([6]; compound 10 µM): 9/23
Score ++ / Total (strong response), % ([6]; compound 10 µM): 4.3%
Score ++ / Total (strong response), embryos ([6]; compound 10 µM): 1/23
Score – / Total (no response to FGF-2), % ([6]; compound 10 µM): 56.5%
Score – / Total (no response to FGF-2), embryos ([6]; compound 10 µM): 13/23
Remaining VEGFR2 kinase activity relative to vehicle control (DMSO) (human recombinant VEGFR2): 84.5 ± 3.3%
IC50 (BAEC invasion): ~5 µM
MMP-2 degradation bands with compound in incubation buffer (MMP-2 [7]): unaffected
MIC Tubular Like-Structures Formation [2]: 1 µM (≈ 0.452 µg/mL)

C[C@H]1NC(=O)CNC(=O)CC/C=C/C(O)c2ccccc2NC1=O (stereo partly drawn) [Solo-6]
IC50 [1]: > 100 µM
MIC Tubular Like-Structures Formation [2]: >50 µM

C[C@H]1NC(=O)CNC(=O)CC/C=C/Cc2ccc(O)cc2NC1=O [Solo-5]
IC50 [1]: > 100 µM
MIC Tubular Like-Structures Formation [2]: >50 µM

C[C@H]1NC(=O)CNC(=O)CCC/C=C/c2ccc(OCc3ccccc3)cc2NC1=O [Solo-4]
IC50 [1]: 69.6 ± 12.5 µM
MIC Tubular Like-Structures Formation [2]: 50 µM (≈ 21.1 µg/mL)
